Here are results for nine molecules from ChEMBL document CHEMBL1201862, “PubChem BioAssay data set” (2004).

Experiment [1] deals with T1, Sentrin-specific protease 8 (Homo sapiens, UniProt Q96LD8).
T1 sequence (Q96LD8 whole entry): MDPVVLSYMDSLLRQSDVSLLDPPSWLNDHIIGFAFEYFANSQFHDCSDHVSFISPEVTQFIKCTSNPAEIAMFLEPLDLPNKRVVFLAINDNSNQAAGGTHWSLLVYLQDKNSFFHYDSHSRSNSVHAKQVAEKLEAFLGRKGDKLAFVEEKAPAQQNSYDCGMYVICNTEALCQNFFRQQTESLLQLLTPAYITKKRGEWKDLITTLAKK
Format: functional.

The target in experiment [2] is T2, Sentrin-specific protease 7 (Homo sapiens, UniProt Q9BQF6).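 Further: Luminescence-based dose-response confirmation of ultra-high-throughput screening hits, measuring inhibition of SENP7.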
T2 sequence (Q9BQF6 whole entry): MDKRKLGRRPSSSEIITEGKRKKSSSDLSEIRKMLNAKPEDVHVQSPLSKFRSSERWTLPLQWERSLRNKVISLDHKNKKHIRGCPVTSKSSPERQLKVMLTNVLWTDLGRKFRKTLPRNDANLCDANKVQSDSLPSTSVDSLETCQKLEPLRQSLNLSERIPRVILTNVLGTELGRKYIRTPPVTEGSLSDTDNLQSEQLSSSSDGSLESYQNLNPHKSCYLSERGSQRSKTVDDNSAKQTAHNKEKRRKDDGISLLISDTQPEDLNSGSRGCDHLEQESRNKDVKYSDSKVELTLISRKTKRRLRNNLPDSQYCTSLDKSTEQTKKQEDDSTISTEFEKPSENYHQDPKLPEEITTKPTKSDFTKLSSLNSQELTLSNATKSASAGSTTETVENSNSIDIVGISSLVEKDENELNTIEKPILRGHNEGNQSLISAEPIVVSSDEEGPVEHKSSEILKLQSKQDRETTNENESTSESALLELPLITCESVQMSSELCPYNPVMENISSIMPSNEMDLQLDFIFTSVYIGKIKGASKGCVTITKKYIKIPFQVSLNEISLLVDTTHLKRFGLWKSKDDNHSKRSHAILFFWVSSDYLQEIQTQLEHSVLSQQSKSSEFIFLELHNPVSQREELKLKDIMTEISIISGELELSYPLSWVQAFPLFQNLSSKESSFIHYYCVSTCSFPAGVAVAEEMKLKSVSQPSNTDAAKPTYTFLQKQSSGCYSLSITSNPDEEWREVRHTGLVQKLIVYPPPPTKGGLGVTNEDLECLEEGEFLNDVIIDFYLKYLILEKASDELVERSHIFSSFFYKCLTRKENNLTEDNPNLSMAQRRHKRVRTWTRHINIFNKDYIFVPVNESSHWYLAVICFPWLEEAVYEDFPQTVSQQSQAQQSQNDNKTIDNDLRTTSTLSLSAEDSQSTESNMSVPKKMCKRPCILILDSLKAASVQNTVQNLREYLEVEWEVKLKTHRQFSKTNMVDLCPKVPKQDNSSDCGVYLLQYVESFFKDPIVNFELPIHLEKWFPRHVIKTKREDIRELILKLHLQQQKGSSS
The experiment is classed as functional.

Another experiment addresses T3, Caspase-3 (Homo sapiens, UniProt P42574).
T3 sequence (P42574 whole entry): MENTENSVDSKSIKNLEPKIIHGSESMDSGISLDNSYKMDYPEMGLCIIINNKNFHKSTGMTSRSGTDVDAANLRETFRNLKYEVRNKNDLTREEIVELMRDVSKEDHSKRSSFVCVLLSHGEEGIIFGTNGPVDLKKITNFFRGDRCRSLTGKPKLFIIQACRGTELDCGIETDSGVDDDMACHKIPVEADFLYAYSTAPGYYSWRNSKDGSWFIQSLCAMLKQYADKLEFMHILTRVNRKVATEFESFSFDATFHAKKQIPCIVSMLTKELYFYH
The experiment is classed as functional.

For experiment [3], the target named is T4, Oxysterols receptor LXR-beta (Homo sapiens, UniProt P55055).
T4 sequence (P55055 whole entry): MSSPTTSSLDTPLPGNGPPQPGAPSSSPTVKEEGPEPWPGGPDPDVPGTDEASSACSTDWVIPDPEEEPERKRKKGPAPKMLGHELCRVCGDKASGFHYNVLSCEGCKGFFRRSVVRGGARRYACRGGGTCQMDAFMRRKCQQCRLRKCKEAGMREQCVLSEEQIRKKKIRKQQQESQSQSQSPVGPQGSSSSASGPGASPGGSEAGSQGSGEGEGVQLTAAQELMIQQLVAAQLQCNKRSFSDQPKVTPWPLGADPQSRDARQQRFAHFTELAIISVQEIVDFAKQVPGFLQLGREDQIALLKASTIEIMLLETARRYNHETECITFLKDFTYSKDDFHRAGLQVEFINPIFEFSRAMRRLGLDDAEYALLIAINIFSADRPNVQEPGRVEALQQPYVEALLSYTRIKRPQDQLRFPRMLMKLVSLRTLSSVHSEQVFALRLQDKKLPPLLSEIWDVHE
The experiment is classed as functional, cell-based.

Experiment [4] concerns the target T5, Sentrin-specific protease 6 (Homo sapiens, UniProt Q9GZR1).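 Further: Luminescence-based dose-response confirmatory assay of SENP6 inhibition, following up an ultra-high-throughput screen.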
T5 sequence (Q9GZR1 whole entry): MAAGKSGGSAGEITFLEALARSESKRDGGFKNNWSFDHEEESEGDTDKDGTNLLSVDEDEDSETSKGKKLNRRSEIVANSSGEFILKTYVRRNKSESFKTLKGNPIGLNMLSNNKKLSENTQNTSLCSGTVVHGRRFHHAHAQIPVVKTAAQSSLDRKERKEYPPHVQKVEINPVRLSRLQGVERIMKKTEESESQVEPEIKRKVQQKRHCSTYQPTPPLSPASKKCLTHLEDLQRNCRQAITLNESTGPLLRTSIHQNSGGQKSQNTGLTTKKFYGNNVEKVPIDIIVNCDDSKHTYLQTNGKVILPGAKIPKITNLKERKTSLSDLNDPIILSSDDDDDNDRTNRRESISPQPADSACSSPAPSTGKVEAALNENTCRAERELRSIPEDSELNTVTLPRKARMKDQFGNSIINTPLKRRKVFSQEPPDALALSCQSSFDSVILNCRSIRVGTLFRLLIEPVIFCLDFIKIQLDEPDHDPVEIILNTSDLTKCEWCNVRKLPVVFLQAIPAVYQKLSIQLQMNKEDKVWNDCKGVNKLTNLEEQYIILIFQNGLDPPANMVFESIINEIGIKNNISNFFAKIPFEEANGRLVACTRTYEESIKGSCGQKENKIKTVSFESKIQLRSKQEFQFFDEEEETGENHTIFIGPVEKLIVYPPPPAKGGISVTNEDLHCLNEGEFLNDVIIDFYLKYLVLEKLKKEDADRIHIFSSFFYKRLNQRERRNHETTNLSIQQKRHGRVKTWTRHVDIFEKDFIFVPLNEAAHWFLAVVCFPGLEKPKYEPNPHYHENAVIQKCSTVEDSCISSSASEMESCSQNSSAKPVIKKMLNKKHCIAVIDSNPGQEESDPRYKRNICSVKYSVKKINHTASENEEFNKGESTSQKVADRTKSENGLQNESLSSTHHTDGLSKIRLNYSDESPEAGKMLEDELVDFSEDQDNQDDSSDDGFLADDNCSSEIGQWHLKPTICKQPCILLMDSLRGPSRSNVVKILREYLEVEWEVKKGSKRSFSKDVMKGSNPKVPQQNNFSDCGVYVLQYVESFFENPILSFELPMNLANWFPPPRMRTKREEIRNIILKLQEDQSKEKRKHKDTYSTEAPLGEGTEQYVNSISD
Format: functional.

Experiment [5] concerns the target NAD-dependent protein deacylase sirtuin-5, mitochondrial (Homo sapiens, UniProt Q9NXA8). In words: sirtuin-5 deacylation blockers, concentration series – biochemical, fluorescence imaging, cherry-pick, set 5, dose response (AID 720591).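 Further: desuccinylation of succinyl peptide AMC substrate read as fluorescence after trypsin release; potency of inhibitors that lower fluorescence and may act on trypsin instead.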
Experiment [6] concerns the target T4, Oxysterols receptor LXR-beta. In words: LXR agonists, Gal4 luciferase reporter, dose response, counter-screen for ssDAF-12 agonist project, cell-based, luminescence, HEK293, S. stercoralis campaign (AID 720737). Format: functional. The following applies: read-out: IC50 (the source's name). (In general: A reporter such as luciferase makes a cellular process visible.)

The target of experiment [7] is T6, Nuclear receptor subfamily 0 group B member 1 (Homo sapiens, UniProt P51843).
T6 sequence (P51843 whole entry): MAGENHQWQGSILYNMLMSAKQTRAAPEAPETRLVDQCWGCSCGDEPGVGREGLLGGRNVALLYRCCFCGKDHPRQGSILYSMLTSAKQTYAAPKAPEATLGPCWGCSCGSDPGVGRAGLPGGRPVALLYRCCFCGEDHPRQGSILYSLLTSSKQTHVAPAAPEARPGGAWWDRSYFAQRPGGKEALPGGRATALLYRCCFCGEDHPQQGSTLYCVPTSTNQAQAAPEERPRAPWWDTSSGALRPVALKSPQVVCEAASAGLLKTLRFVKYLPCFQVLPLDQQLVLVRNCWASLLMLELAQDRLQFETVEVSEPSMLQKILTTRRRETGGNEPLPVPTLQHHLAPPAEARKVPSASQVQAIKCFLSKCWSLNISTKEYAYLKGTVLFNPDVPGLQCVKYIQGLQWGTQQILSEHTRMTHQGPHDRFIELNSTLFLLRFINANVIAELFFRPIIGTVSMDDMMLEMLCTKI
Put plainly: Luminescence-based cell-based high throughput dose response assay for inhibitors of the orphan nuclear receptor subfamily 0, group B, member 1 (DAX1; NR0B1). [Related pubchem assays (depositor defined):AID504766, AID504790]. Format: functional.

Experiment [8] is described as follows: Luminescence-based cell-based high throughput dose response assay to identify activators of the DAF-12 from the parasite S. stercoralis (ssDAF-12). The experiment is classed as functional.
The next experiment concerns HEK293. Put plainly: cells. The experiment is classed as functional, cell-based. The settings on record: Homo sapiens.
Another experiment has as its target T7, Protein Tat (Human immunodeficiency virus type 1 group M subtype B (isolate HXB2)(HIV-1), UniProt P04608).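 Further: tat binding to TAR RNA read out by fluorescence polarization.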
T7 sequence (P04608 whole entry): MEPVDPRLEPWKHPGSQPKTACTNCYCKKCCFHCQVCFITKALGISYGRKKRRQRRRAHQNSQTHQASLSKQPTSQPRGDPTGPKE
Format: functional.

For experiment [9], the target named is T8, Rac GTPase-activating protein 1 (Homo sapiens, UniProt Q9H0H5).
T8 sequence (Q9H0H5 whole entry): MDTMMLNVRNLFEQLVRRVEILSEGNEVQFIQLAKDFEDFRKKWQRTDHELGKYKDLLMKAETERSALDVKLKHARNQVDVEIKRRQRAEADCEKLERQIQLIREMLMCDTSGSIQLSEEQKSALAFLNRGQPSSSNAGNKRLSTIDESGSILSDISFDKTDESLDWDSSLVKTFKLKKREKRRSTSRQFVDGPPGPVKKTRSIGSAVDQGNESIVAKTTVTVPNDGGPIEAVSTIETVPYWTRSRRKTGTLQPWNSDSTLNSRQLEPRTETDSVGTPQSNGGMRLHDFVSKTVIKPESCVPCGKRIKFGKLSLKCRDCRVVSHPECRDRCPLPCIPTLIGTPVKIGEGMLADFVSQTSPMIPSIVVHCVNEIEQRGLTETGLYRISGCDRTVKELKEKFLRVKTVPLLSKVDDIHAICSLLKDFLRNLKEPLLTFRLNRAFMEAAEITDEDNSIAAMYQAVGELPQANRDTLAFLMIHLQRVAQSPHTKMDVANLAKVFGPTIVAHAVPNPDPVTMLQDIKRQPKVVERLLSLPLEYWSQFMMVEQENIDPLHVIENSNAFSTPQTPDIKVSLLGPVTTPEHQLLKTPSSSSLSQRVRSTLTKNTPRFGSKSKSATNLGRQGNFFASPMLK
In words: blockers of MgcRacGAP-driven Rac1 GTP hydrolysis – biochemical, ADP Hunter fluorescence, primary and confirmatory, confirmation (AID 624330). Format: functional.

The nature of experiment [10]: viability loss in HEK293 cells – cell-based, plate reader, cherry-picked samples, cytotoxicity control, dose response (AID 743446). Format: functional.
The nature of experiment [11]: blockade of melanocortin 4 receptor signaling – cell-based, plate reader, cherry pick, counter-screen for LGR2 antagonist project, dose response (AID 743444).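 Further: transfected HEK 293 cells stimulated with alpha-MSH peptide; potency of inhibitors of the alpha-MSH evoked signal.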 The experiment is classed as functional. A general note: The purpose of a counterscreen is to sort out artefacts and off-target activity.
Experiment [12] is described as follows: blockers of bursicon-stimulated LGR2 cAMP reporter – cell-based, HEK293, CRE-luciferase reporter, cherry pick, set 2, dose response (AID 743343).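 Further: transfected cells were stimulated with diluted bursicon conditioned medium after compound addition.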 Format: functional.
A short description of experiment [13]: P. falciparum Dd2 growth inhibitors, dose response, SYBR Green, cherry-picked samples (AID 1159567). Format: functional, cell-based.
Experiment [14] can be described thus: toxicity to human hepatoma HepG2 cells – cell-based, cherry-picked samples, cytotoxicity control, dose response (AID 1159577). Format: functional.

Molecules are shown by their SMILES. Activity calls are given as the source filed them.

NAD-dependent protein deacylase sirtuin-5, mitochondrial, sequence (Q9NXA8 whole entry, the tested form may be a part): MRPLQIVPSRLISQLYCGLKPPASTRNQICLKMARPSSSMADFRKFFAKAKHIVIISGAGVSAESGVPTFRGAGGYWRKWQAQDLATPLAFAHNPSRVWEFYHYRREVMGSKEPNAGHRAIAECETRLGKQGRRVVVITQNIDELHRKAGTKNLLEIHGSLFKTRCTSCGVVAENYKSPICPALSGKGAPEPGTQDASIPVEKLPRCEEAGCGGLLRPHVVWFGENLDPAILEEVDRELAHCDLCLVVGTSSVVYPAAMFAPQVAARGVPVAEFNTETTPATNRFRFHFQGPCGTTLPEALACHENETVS

One may read the IC50 as the point on the concentration scale where inhibition reaches its midpoint. Regarding `CCOC(=O)c1c(C)[nH]c(N=Nc2cccc(OC)c2)c1C`, the IC50 in experiment [1] was 17.3 µM (active); in [2], 3.75 µM (active); at Caspase-3, 29.1 µM (active); in experiment [4] it was 11.7 µM (active). Moreover, the EC50 in experiment [3] is > 67.5 µM (inactive).

For orientation: AC50 means the concentration at which the activity in the assay is half-maximal. `Cc1ccc(C)c(N2CCN(C(=O)c3cccn4c(=O)c5sccc5nc34)CC2)c1`: in [5], the AC50 was 26.9 µM (active).

As to `COc1ccc(Cl)cc1C(=O)Nc1ccc2c(c1)OCCO2`, in experiment [6], the EC50 was > 67.5 µM (inactive). The IC50 (in experiment [7]; in experiment [8]; in the experiment on HEK293) was > 67.5 µM (inactive) each time.

Regarding `O=C(c1ccco1)N1CCN(C(c2ccccn2)c2nnnn2C2CCCC2)CC1` (stereo not given), the IC50 at Protein Tat was > 100 µM (active).

In the case of `Cc1cc(C(=O)NNC(=O)/C=C/c2ccco2)c(C)o1`, the IC50 in experiment [9] is 125 µM (active); at Protein Tat, > 100 µM (active).

With `O=C(COC(=O)c1nnc(O)c2ccccc12)Nc1ccccc1`, the AC50 in experiment [5] is > 30 µM (inactive).

Regarding `Cc1cccc2sc(NC(=O)C3CC3)nc12`, in experiment [5], the AC50 is > 30 µM (inactive).

For `Clc1cccc(N2Cc3cc(-c4ccccc4)ccc3-n3nncc3C2)c1`, the AC50 in experiment [10] was 20.7 µM (active); in experiment [11], 34.1 µM (active); in experiment [12], 29.4 µM (active).

Consider `COc1cccc(S(=O)(=O)N2CCCCN3[C@@H](CO)[C@@H](c4ccc(C5=CCCCC5)cc4)[C@@H]3C2)c1`, for which the results for the half-maximal activity concentration (AC50) in [13] and in [14] were 1.62 µM (active) and 10.8 µM (active), respectively.
